Measured values from patent US20080286301A1, “Treatment of diabetes” (priority 1997, published 2008).
“Also recorded” adds a separate entry of the source.

What was measured:
Format in all cases: in vivo, human
[1] = system: subjects with remission phase Type I diabetes; experiment: Sustacal meal with intravenous GLIP infusion 1.2 pm/kg/min (Example 1); conditions: IV GLIP 1.2 pm/kg/min for 120 min after Sustacal meal; for gastrin levels / gastrin response: FIG. 1 Panel E
Description: 7 subjects with remission phase Type I diabetes were studied after ingestion of a standardised meal of Sustacal (Upjohn) (delivering […]). Subjects continued their normal insulin treatment programme on the day prior to the test and, on the day of the test, omitted their morning insulin injection and arrived fasting at 8:00 am. […] Infusion was continued for 120 minutes. Blood levels of glucose, C-peptide, gastrin, glucagon and HPP were monitored by standard radioimmunoassay methods in samples taken before and at intervals during the study, up to 180 minutes. On another test day, subjects were given the Sustacal meal alone and the same analytes were similarly monitored.

[2] = system: subjects with remission phase Type I diabetes; experiment: Intravenous glucose infusion with intravenous GLIP (Example 2); conditions: IV GLIP 1.2 pm/kg/min for 60 min along with IV glucose 20 g over 60 min; FIG. 2
[3] = system: subjects with remission phase Type I diabetes; experiment: Sustacal meal with infusion of 0.75 pm/kg/min GLIP (Example 3); conditions: versus saline infusion control, FIG. 3
Description: Four subjects with remission phase Type I diabetes were studied during infusion with 0.75 pm/kg/min-GLIP for 120 minutes after a Sustacal meal.
The test was conducted as described in Example 1 and blood glucose and C-peptide levels were measured. On a further test day, the subjects were studied during saline infusion after a similar Sustacal meal.

normal volunteers = experiment: Sustacal meal preceded by subcutaneous injection of GLIP in normal volunteers (Example 4); conditions: 100 μg GLIP sc before Sustacal meal
Source text: Results are shown in FIG. 4. *indicates statistically significant differences between treatments (p<0.05).

Type I diabetic subjects = experiment: Sustacal meal preceded by subcutaneous injection of 100 μg GLIP in Type I diabetics (Example 5); conditions: 100 μg GLIP sc prior to test meal
Source text: Type I diabetic subjects were studied.
The results are shown in FIG. 5. *indicates statistically significant differences between treatments (p<0.05).

Type 1 diabetic subject = experiment: GLIP along with insulin subcutaneously prior to Sustacal meal, post-prandial glycaemia (Example 6); conditions: 50 μg GLIP sc along with 5 units insulin (half the usual dose) prior to Sustacal meal; one subject; FIG. 6 Panel A
Description: (§1) One Type 1 diabetic subject was given GLIP along with insulin and the effects on post-prandial glycaemia observed. The subject received 5 units of insulin and 50 μg GLIP as subcutaneous injections immediately prior to ingestion of a Sustacal meal as described in Example 1. Blood levels of GLIP were monitored by a standard radioimmunoassay method.

[4] = Blood levels of GLIP by radioimmunoassay after subcutaneous injection (Example 6); conditions: 50 μg GLIP sc with 5 units insulin, Type I diabetic subject; FIG. 6 Panel E
Description: as §1

With “Glucagon-like peptide 1(7-36)amide [GLIP]” the “blood levels of C-peptide” value ([1]; FIG. 1) was “prevented a significant increase in blood levels of C-peptide”, the “plasma glucagon levels stimulated by the meal” value ([1]; FIG. 1) was “prevented the mean rise in plasma glucagon levels” and the “secretion of pancreatic polypeptide (PP) after the meal” value ([1]; FIG. 1 Panel C) was “this response was absent”. For the same substance, the “gastrin levels / gastrin response” value [1] was “not significantly affected”, the “gastrin levels / gastrin response” value ([1]; listed as CLIP) was “normal gastrin response” and the “control of blood glucose level” value [2] was “improved control of blood glucose level”. The C-peptide ([3]; lower dose of GLIP (0.75 pmol/kg/min) along with a meal) was “some increase”, the blood glucose ([3]; lower dose of GLIP (0.75 μmol/kg/min) along with a meal) was “some increase; also recorded: less than in the control experiment” and the “increase in blood levels of C-peptide” value (normal volunteers) was “delay in increase”. For the same substance, the “increase in blood levels of HPP” value (normal volunteers) was “delay in increase”, the “increase in blood levels of glucose” value (normal volunteers) was “delay in increase” and the “increase in blood levels of insulin” value (normal volunteers) was “delay in increase”. The “blood glucose levels compared to control” value (Type I diabetic subjects; FIG. 5 Panel A) was “lowering of blood glucose levels”, the “pancreatic polypeptide (HPP) levels” value (Type I diabetic subjects; FIG. 5 Panel D) was “delayed rise in pancreatic polypeptide (HPP) levels” and the “insulin secretion over control levels” value (Type I diabetic subjects; FIG. 5 Panels B and C) was “no enhancement of insulin secretion over control levels”. For the same substance, the “blood glucose after standard meal (highest level)” value (Type 1 diabetic subject) was no more than 8 mM and the “time to clearance from the blood” value [4] was “about two”.
